Test results from patent publication US20230416248A1, “COMPOUNDS AND USES THEREOF” (Foghorn Therapeutics Inc., priority 2020, published 2023).
Like-named read-outs stand apart in the source and are kept apart here.

Assays:
BRM = biological target: T1, BRM (Homo sapiens, UniProt P51531); experiment: ATPase catalytic activity of BRM, ADP-Glo in vitro biochemical assay; settings: for IC50: 30 nM BRM, 400 μM ATP; for Ratio* (BRG1 IC50 (μM) divided by BRM IC50 (μM)): selectivity ratio BRG1 IC50 / BRM IC50
T1 construct: made in house; host or cells: High Five insect cells
T1 sequence (P51531 whole entry): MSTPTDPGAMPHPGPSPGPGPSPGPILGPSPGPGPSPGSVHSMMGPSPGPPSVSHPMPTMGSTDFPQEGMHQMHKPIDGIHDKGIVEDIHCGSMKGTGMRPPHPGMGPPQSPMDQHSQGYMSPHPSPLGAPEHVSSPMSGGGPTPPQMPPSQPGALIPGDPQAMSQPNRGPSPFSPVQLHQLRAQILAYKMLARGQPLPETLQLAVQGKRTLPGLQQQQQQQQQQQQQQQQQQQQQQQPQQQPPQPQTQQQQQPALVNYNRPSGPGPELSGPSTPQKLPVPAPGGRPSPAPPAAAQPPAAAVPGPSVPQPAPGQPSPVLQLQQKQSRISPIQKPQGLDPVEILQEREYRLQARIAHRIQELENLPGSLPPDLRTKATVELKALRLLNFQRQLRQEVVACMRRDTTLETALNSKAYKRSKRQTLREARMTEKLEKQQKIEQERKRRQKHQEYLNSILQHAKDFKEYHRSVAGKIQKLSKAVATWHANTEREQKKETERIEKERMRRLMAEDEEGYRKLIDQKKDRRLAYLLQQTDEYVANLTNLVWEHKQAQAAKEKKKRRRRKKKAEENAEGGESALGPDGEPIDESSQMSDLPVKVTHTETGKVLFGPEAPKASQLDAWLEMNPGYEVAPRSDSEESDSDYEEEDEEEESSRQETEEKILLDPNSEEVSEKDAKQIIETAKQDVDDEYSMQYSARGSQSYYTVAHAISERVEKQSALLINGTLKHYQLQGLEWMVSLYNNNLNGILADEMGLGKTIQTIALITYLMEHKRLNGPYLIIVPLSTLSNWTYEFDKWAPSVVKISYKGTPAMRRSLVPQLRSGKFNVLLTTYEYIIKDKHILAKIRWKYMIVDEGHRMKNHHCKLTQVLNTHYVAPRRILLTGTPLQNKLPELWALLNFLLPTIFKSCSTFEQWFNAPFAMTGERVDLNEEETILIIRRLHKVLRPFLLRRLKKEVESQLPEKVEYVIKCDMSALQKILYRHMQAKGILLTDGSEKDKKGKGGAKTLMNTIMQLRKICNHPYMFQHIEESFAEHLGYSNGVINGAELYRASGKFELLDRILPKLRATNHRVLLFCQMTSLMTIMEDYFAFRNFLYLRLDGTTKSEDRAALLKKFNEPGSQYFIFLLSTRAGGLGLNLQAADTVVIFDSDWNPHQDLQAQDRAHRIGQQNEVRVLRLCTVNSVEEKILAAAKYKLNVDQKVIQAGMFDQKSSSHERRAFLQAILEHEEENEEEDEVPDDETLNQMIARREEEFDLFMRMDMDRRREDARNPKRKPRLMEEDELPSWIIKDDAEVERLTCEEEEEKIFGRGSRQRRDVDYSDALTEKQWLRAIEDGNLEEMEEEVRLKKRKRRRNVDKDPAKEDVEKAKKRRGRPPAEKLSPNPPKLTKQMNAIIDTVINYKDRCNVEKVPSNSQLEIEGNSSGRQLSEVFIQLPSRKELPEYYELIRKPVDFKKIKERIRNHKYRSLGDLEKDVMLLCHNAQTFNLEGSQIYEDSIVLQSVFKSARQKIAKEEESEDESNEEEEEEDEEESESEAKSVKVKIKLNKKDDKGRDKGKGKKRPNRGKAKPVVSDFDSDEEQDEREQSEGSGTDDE
Method in brief: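 ADP-Glo luminescence, after depletion of leftover ATP and conversion of ADP, reported the activity. The 1 h room-temperature reaction held 400 μM ATP, 20 nM salmon sperm DNA and 30 nM BRM in 20 mM Tris pH 8, 20 mM MgCl2, 50 mM NaCl, 0.1% Tween-20, 1 mM DTT.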

BRG-1 = biological target: T2, BRG-1 (Homo sapiens, UniProt P51532); experiment: ATPase catalytic activity of BRG-1, ADP-Glo in vitro biochemical assay; settings: 30 nM BRG-1, 400 μM ATP, read-out: BRG1 IC50
T2 construct: made in house; host or cells: High Five insect cells
T2 sequence (P51532 whole entry): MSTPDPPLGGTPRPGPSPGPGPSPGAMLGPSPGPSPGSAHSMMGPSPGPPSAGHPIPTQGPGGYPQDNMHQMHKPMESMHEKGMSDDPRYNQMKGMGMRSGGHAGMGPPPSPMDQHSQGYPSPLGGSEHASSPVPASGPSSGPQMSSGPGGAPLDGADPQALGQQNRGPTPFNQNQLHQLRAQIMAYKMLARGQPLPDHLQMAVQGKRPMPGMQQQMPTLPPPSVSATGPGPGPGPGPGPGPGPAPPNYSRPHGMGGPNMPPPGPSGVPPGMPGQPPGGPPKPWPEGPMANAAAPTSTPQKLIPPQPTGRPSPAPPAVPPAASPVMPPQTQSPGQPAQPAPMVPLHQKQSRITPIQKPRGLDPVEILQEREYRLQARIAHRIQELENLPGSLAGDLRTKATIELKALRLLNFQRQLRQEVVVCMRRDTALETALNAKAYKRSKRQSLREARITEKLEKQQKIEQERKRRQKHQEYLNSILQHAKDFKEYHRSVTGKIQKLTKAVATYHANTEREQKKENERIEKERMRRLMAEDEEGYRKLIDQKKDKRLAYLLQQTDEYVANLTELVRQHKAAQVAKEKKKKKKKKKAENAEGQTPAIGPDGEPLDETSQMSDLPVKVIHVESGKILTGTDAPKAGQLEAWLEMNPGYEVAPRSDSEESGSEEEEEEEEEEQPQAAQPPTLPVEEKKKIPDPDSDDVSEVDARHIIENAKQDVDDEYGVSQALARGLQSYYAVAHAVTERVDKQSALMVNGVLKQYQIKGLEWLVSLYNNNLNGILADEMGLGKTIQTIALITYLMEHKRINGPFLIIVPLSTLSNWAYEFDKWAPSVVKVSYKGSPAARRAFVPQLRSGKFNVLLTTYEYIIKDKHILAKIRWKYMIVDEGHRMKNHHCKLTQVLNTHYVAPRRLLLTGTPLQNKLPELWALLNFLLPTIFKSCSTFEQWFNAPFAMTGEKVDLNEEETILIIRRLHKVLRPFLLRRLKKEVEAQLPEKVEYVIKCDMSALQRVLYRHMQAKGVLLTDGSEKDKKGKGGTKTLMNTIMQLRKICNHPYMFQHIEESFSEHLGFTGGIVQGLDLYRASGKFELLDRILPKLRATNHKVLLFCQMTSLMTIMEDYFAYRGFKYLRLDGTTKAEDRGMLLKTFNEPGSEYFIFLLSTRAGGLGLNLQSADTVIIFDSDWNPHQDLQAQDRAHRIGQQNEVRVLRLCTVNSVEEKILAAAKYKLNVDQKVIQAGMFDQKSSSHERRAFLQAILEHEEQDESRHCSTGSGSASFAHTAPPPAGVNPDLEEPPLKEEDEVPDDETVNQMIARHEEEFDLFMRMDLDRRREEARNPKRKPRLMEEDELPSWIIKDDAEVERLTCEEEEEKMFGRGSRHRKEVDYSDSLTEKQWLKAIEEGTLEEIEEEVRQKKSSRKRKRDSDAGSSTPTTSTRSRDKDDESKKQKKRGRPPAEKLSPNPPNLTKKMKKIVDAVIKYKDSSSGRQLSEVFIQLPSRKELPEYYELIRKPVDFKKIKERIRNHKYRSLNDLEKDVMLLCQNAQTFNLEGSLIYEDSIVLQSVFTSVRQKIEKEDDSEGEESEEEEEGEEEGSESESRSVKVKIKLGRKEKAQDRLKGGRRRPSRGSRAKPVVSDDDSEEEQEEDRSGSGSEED
Method in brief: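 ADP produced by BRG-1 was quantified by luciferase luminescence. A 60 min room-temperature ADP-to-ATP conversion followed a 40 min ATP-depletion step.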

[1] = ATPase catalytic activity, ADP-Glo

IC50 (BRM; ADP-Glo ATPase assay) | Ratio* (BRM; ratio BRG1 IC50 / BRM IC50) | IC50 (BRG-1; ADP-Glo ATPase assay) | Ratio* (BRG1 IC50 (μM) divided by BRM IC50 (μM)) (BRM) | IC50 (BRM; [1]) | Ratio* (BRM; ratio of BRG1 IC50 to BRM IC50) | IC50 (BRG-1; [1]) | Structure (SMILES)
0.0093 µM | 27.53 | 0.255 µM | – | – | – | – | COCc1ccc2c(c1F)N(c1ccc3cnc(CNC(=O)c4ccc5c(c4)S(=O)(=O)CCOC5)cc3n1)CCC2 [Compound 711]
– | – | – | – | 0.0672 µM | 12.50 | 0.839 µM | CO[C@@H](C)c1ccc2c(n1)N(c1ccc3cnc(CNC(=O)c4ccc5c(c4)S(=O)(=O)CCOC5)cc3n1)CCC2 [Compound 561]
– | – | – | – | 0.033 µM | 9.53 | 0.315 µM | Cc1ccnc2c1N(C)CCN2c1ccc2cnc(CNC(=O)c3ccc4c(c3)S(=O)(=O)CCOC4)cc2n1 [Compound 681]
– | – | – | – | 0.0401 µM | 9.22 | 0.369 µM | COC1(Cn2ccc3c(-c4ccc5cnc(CNC(=O)c6ccc7c(c6)S(=O)(=O)CCOC7)cc5n4)ccnc32)CC1 [Compound 585]
0.0407 µM | – | 0.61 µM | 15.00 | – | – | – | CS(=O)(=O)c1cc(C(=O)NCc2cc3nc(-c4cccc(N5CC[C@H]6COC[C@H]6C5)n4)ccc3cn2)ccc1C(F)F [Compound 95]
– | – | – | – | 0.0063 µM | 5.55 | 0.0348 µM | C[C@]1(F)CCCN(c2cccc(-c3ccc4cnc(CNC(=O)c5ccc6c(c5)S(=O)(=O)CCOC6)cc4n3)n2)C1 [Compound 317]
– | – | – | – | 0.0872 µM | 9.96 | 0.868 µM | COCCn1cc2cccc(-c3ccc4cnc(CNC(=O)c5ccc6c(c5)S(=O)(=O)CCOC6)cc4n3)c2n1 [Compound 701]
0.0905 µM | – | 0.694 µM | 7.67 | – | – | – | COC(C)(C)CN(C)c1cccc(-c2ccc3cnc(CNC(=O)c4ccc5c(c4)S(=O)(=O)CCOC5)cc3n2)n1 [Compound 44]
0.0247 µM | 11.83 | 0.292 µM | – | – | – | – | O=C(NCc1cc2nc(N3CCCc4cc(F)c(OCC5COC5)cc43)ccc2cn1)c1ccc2c(c1)S(=O)(=O)CCOC2 [Compound 726]
– | – | – | – | 0.0057 µM | 10.67 | 0.0609 µM | COCCN1CCOc2c(-c3ccc4cnc(CNC(=O)c5ccc6c(c5)S(=O)(=O)CCOC6)cc4n3)ccc(F)c21 [Compound 402]
0.033 µM | 4.95 | 0.163 µM | – | – | – | – | CN(C)c1ccnc2c1CCCN2c1ccc2cnc(CNC(=O)c3ccc4c(c3)S(=O)(=O)CCOC4)cc2n1 [Compound 837]
0.197 µM | – | 3.46 µM | 17.58 | – | – | – | CN(C)S(=O)(=O)c1cc(C(=O)NCc2cc3nc(-c4cncc(C5CC5)n4)ccc3cn2)ccc1Cl [Compound 288]
– | – | – | – | 0.0221 µM | 10.05 | 0.222 µM | COCc1cnc2c(c1)CCCN2c1ccc2cnc(CNC(=O)c3ccc4c(c3)S(=O)(=O)CCOC4)cc2n1 [Compound 447]
0.0163 µM | – | 0.343 µM | 21.00 | – | – | – | O=C(NCc1cc2cc(-c3cccc(N4CCC4)n3)ccc2cn1)c1cc(F)c2c(c1)S(=O)(=O)CCOC2 [Compound 268]
0.0105 µM | 9.44 | 0.0996 µM | – | – | – | – | COc1ccc(F)c2c1CCCN2c1ccc2cnc(CNC(=O)c3ccc4c(c3)S(=O)(=O)CCOC4)cc2n1 [Compound 718]

Second part, the molecule before the results:

Structure (SMILES) | IC50 (BRM; ADP-Glo ATPase assay) | Ratio* (BRM; ratio BRG1 IC50 / BRM IC50) | IC50 (BRG-1; ADP-Glo ATPase assay) | Ratio* (BRG1 IC50 (μM) divided by BRM IC50 (μM)) (BRM) | IC50 (BRM; [1]) | Ratio* (BRM; ratio of BRG1 IC50 to BRM IC50) | IC50 (BRG-1; [1])
O=C(NCc1cc2nc(-c3cncc(C4CC4)n3)ccc2cn1)c1ccc2c(c1)S(=O)(=O)CCOC2 [Compound 305] | 0.03 µM | – | 0.279 µM | 9.32 | – | – | –
CCO[C@H]1CCOc2c(-c3ccc4cnc(CNC(=O)c5ccc6c(c5)S(=O)(=O)CCOC6)cc4n3)cccc21 [Compound 66] | 0.211 µM | – | 1.64 µM | 7.78 | – | – | –
CN(CC1COC1)c1cccc(-c2ccc3cnc(CNC(=O)c4ccc5c(c4)S(=O)(=O)CCOC5)cc3n2)n1 [Compound 71] | 0.0239 µM | – | 0.285 µM | 11.93 | – | – | –
O=C(NCc1cc2nc(N3CCOc4ccc(C5CC5)cc43)ccc2cn1)c1ccc2c(c1)S(=O)(=O)CCOC2 [Compound 606] | – | – | – | – | 0.0075 µM | 16.72 | 0.125 µM
C[C@@H]1CN(c2cccc(-c3ccc4cnc(CNC(=O)c5cc(Cl)c6c(c5)S(=O)(=O)CCOC6)cc4n3)n2)C[C@H](C)O1 [Compound 143] | 0.0076 µM | – | 0.108 µM | 14.36 | – | – | –
CN1CCC2(c3cccc(-c4ccc5cnc(CNC(=O)c6ccc7c(c6)S(=O)(=O)CCOC7)cc5n4)n3)CC2C1 (stereo not drawn) [Compound 699] | – | – | – | – | 0.275 µM | 8.04 | 2.21 µM
Cn1ccc2c(-c3ccc4cnc(CNC(=O)c5ccc6c(c5)S(=O)(=O)CCOC6)cc4n3)ccc(Cl)c21 [Compound 43] | 0.0198 µM | – | 0.185 µM | 9.33 | – | – | –
O=C(NCc1cc2nc(N3CCOc4cc(Cl)cnc43)ccc2cn1)c1cc(F)c2c(c1)S(=O)(=O)CCOC2 [Compound 691] | – | – | – | – | 0.0095 µM | 16.64 | 0.159 µM
C[C@@H](C1COC1)N(C)c1cccc(-c2ccc3cnc(CNC(=O)c4ccc5c(c4)S(=O)(=O)CCOC5)cc3n2)n1 [Compound 471] | – | – | – | – | 0.167 µM | 5.29 | 0.884 µM
O=C(NCc1cc2nc(-c3ccc(F)c(OC(F)F)n3)ccc2cn1)c1ccc2c(c1)S(=O)(=O)CCOC2 [Compound 137] | 0.0225 µM | – | 0.382 µM | 16.99 | – | – | –
O=C(NCc1cc2nc(N3CCOc4cccnc43)ccc2cn1)c1ccc2c(c1)S(=O)(=O)CCOC2 [Compound 367] | – | – | – | – | 0.0084 µM | 17.87 | 0.151 µM
CO[C@H](C)c1cnc2c(c1)CCCN2c1ccc2cnc(CNC(=O)c3ccc4c(c3)S(=O)(=O)CCOC4)cc2n1 [Compound 608] | – | – | – | – | 0.0445 µM | 21.42 | 0.952 µM
CCOc1ccc2c(n1)N(c1ccc3cnc(CNC(=O)c4ccc5c(c4)S(=O)(=O)CCOC5)cc3n1)CCC2 [Compound 576] | – | – | – | – | 0.0889 µM | 18.86 | 1.68 µM
O=C(NCc1cc2nc(N3CCOc4ccc(C(F)(F)F)nc43)ccc2cn1)c1ccc2c(c1)S(=O)(=O)CCOC2 [Compound 583] | – | – | – | – | 0.109 µM | 17.41 | 1.89 µM
COc1ccc2c(c1)N(c1ccc3cnc(CNC(=O)c4ccc5c(c4)S(=O)(=O)CCOC5)cc3n1)CCO2 [Compound 776] | 0.0063 µM | 15.77 | 0.1 µM | – | – | – | –
O=C(NCc1cc2nc(-c3cncc(C4CC4)n3)ccc2cn1)c1ccc2c(c1)S(=O)(=O)CCCO2 [Compound 302] | 0.277 µM | – | 2.35 µM | 8.50 | – | – | –
CCOc1nc(-c2ccc3cnc(CNC(=O)c4ccc5c(c4)S(=O)(=O)CCOC5)cc3n2)ccc1C [Compound 501] | – | – | – | – | 0.0099 µM | 13.59 | 0.135 µM
CN(C[C@@H]1CCO1)c1cccc(-c2ccc3cnc(CNC(=O)c4ccc5c(c4)S(=O)(=O)CCOC5)cc3n2)n1 [Compound 382] | – | – | – | – | 0.0091 µM | 13.22 | 0.12 µM
COC[C@H](C)Oc1ccc2c(c1)N(c1ccc3cnc(CNC(=O)c4ccc5c(c4)S(=O)(=O)CCOC5)cc3n1)CCC2 [Compound 697] | – | – | – | – | 0.0049 µM | 7.66 | 0.0379 µM
COCCN(CC(F)F)c1cccc(-c2ccc3cnc(CNC(=O)c4ccc5c(c4)S(=O)(=O)CCOC5)cc3n2)n1 [Compound 358] | – | – | – | – | 0.0046 µM | 7.69 | 0.0354 µM
C[C@@H]1CN(c2ccnc(-c3ccc4cnc(CNC(=O)c5ccc6c(c5)S(=O)(=O)CCOC6)cc4c3)n2)C[C@H](C)O1 [Compound 707] | 0.0546 µM | 4.84 | 0.264 µM | – | – | – | –
C[C@@H]1CN(c2cncc(-c3ccc4cnc(CNC(=O)c5ccc6c(c5)S(=O)(=O)CCOC6)cc4c3)n2)C[C@H](C)O1 [Compound 211] | 0.007 µM | – | 0.0213 µM | 3.05 | – | – | –
CS(=O)(=O)c1cc(F)cc(C(=O)NCc2cc3nc(-c4cncc(C5CC5)n4)ccc3cn2)c1 [Compound 295] | 0.385 µM | – | 5 µM | 12.98 | – | – | –
CO[C@@H](C)Cn1ccc2c(-c3ccc4cnc(CNC(=O)c5ccc6c(c5)S(=O)(=O)CCOC6)cc4n3)ccnc21 [Compound 449] | – | – | – | – | 0.0349 µM | 14.08 | 0.491 µM
O=C(NCc1cc2nc(-c3cn(C4COC4)nc3C3CC3)ccc2cn1)c1ccc2c(c1)S(=O)(=O)CCOC2 [Compound 194] | 0.219 µM | – | 2.78 µM | 12.69 | – | – | –
C[C@@H]1CN(c2cccc(-c3ccc4cnc(CNC(=O)c5ccc6c(c5)S(=O)(=O)CCOCC6)cc4n3)n2)C[C@H](C)O1 [Compound 627] | – | – | – | – | 0.0039 µM | 1.28 | 0.005 µM
O=C(NCc1cc2nc(N3CCCc4ccc(OC(F)F)nc43)ccc2cn1)c1ccc2c(c1)S(=O)(=O)CCOC2 [Compound 643] | – | – | – | – | 0.108 µM | 8.21 | 0.889 µM
CS(=O)(=O)c1cc(C(=O)NCc2cc3nc(-c4cncc(C5CC5)n4)ccc3cn2)ccc1CC(F)F [Compound 164] | 0.11 µM | – | 1.41 µM | 12.80 | – | – | –
C[C@H]1COCc2ccc(C(=O)NCc3cc4nc(N5CCOc6cc(F)cnc65)ccc4cn3)cc2S1(=O)=O [Compound 738] | 0.0132 µM | 32.33 | 0.428 µM | – | – | – | –
